Data reported in ChEMBL document CHEMBL4823287, “Design and synthesis of novel 5-alkynyl pyrimidine nucleosides derivatives: Influence of C-6-substituent on antituberculosis activity” (2021).
≈ marks a conversion by molar mass, not a printed value.

What was measured:
Format in all cases: functional
[1] = tested on: Mycobacterium tuberculosis; experiment: Antimycobacterial activity against Mycobacterium tuberculosis H37Ra assessed as inhibition of bacterial growth at 50 ug/ml measured by microplate alamar blue assay
[2] = tested on: Mycobacterium tuberculosis; experiment: Antimycobacterial activity against Mycobacterium tuberculosis H37Ra assessed as inhibition of bacterial growth at 1 to 5 ug/ml measured by microplate alamar blue assay; details: dose 1-5 µg/ml; at 1 to 5 µg/mL
[3] = tested on: Mycobacterium tuberculosis; experiment: Antimycobacterial activity against Mycobacterium tuberculosis H37Ra assessed as inhibition of bacterial growth at 25 ug/ml measured by microplate alamar blue assay
[4] = tested on: Mycobacterium tuberculosis; experiment: Antimycobacterial activity against Mycobacterium tuberculosis H37Ra assessed as inhibition of bacterial growth measured by microplate alamar blue assay
[5] = tested on: Mycobacterium tuberculosis; experiment: Antimycobacterial activity against Mycobacterium tuberculosis H37Ra assessed as inhibition of bacterial growth at 1 ug/ml measured by microplate alamar blue assay
[6] = tested on: Mycobacterium tuberculosis; experiment: Antimycobacterial activity against Mycobacterium tuberculosis H37Ra assessed as inhibition of bacterial growth at 100 ug/ml measured by microplate alamar blue assay
[7] = tested on: Mycobacterium tuberculosis; experiment: Antimycobacterial activity against Mycobacterium tuberculosis H37Ra assessed as inhibition of bacterial growth at 10 ug/ml measured by microplate alamar blue assay
[8] = tested on: Mycobacterium tuberculosis; experiment: Antimycobacterial activity against Mycobacterium tuberculosis H37Ra assessed as inhibition of bacterial growth at 5 ug/ml measured by microplate alamar blue assay

| Structure (SMILES) | inhibition at 50 µg/mL [1] [%] | inhibition (percent inhibition of bacterial growth) [2] [%] | inhibition at 25 µg/mL [3] [%] | MIC50 [4] [µg/mL] | inhibition at 1 µg/mL [5] [%] | inhibition at 100 µg/mL [6] [%] | inhibition at 10 µg/mL [7] [%] | inhibition at 5 µg/mL [8] [%] |
| --- | --- | --- | --- | --- | --- | --- | --- | --- |
| CCCCC#Cc1c(C)n([C@@H]2O[C@H](CO)[C@@H](O)[C@H]2O)c(=O)[nH]c1=O | 100 | 10 | 60 | 17.7 (≈ 52.3 µM) | – | – | – | – |
| Cc1c(C#CC(O)c2ccccc2)c(=O)[nH]c(=O)n1[C@@H]1O[C@H](CO)[C@@H](O)[C@H]1O (stereo partly specified) | – | – | – | 0.6 (≈ 1.54 µM) | 100 | – | – | – |
| CC#Cc1c(C)n([C@@H]2O[C@H](CO)[C@@H](O)[C@H]2O)c(=O)[nH]c1=O | 50 | – | – | 50 (≈ 169 µM) | – | 90 | 10 | – |
| CCCCCCC#Cc1c(C)n([C@@H]2O[C@H](CO)[C@@H](O)[C@H]2O)c(=O)[nH]c1=O | 70 | – | – | < 50 | – | 90 | – | – |
| Cc1c(C#CC2CC2)c(=O)[nH]c(=O)n1[C@@H]1O[C@H](CO)[C@@H](O)[C@H]1O | – | 50 | – | 2.3 (≈ 7.14 µM) | – | 90 | 80 | – |
| Cc1c(C#C[Si](C)(C)C)c(=O)[nH]c(=O)n1[C@@H]1O[C@H](CO)[C@@H](O)[C@H]1O | – | – | – | – | – | 0 | – | – |
| CCCC#Cc1c(C)n([C@@H]2O[C@H](CO)[C@@H](O)[C@H]2O)c(=O)[nH]c1=O | 60 | – | – | < 50 | – | 90 | 0 | – |
| Cc1c(C#CC2CCCCC2)c(=O)[nH]c(=O)n1[C@@H]1O[C@H](CO)[C@@H](O)[C@H]1O | 100 | 10 | 60 | 14.1 (≈ 38.7 µM) | – | – | – | – |
| Cc1c(C#Cc2ccccc2)c(=O)[nH]c(=O)n1[C@@H]1O[C@H](CO)[C@@H](O)[C@H]1O | 75 | 50 | – | 2.6 (≈ 7.26 µM) | – | 90 | 75 | – |
| CCC#Cc1c(C)n([C@@H]2O[C@H](CO)[C@@H](O)[C@H]2O)c(=O)[nH]c1=O | 50 | – | – | 50 (≈ 161 µM) | – | 90 | 10 | – |
| Cc1c(C#CCC(C)C)c(=O)[nH]c(=O)n1[C@@H]1O[C@H](CO)[C@@H](O)[C@H]1O | 100 | 10 | 60 | 18.1 (≈ 53.5 µM) | – | – | – | – |
| N[C@@H]1CONC1=O [CYCLOSERINE] | – | – | – | 5.2 (≈ 50.9 µM) | – | – | 67 | 50 |
| NNC(=O)c1ccncc1 [ISONIAZID] | – | – | – | 0.8 (≈ 5.83 µM) | 100 | – | – | – |
| CO[C@H]1/C=C/O[C@@]2(C)Oc3c(C)c(O)c4c(O)c(c(/C=N/N5CCN(C)CC5)c(O)c4c3C2=O)NC(=O)/C(C)=C\C=C\[C@H](C)[C@H](O)[C@@H](C)[C@@H](O)[C@@H](C)[C@H](OC(C)=O)[C@@H]1C [RIFAMPIN] | – | – | – | 0.7 (≈ 0.851 µM) | 100 | – | – | – |
